# Laboratory results from patent US12534457B2, “Heteroaryl derivative compounds, and uses thereof” (Voronoi Inc., priority 2021, dated 2026).
# Tested on: Ba/F3 cells expressing EGFR Del19/C797S (EGFR DC)
# Test: Proliferation inhibitory activity, Ba/F3 cells expressing EGFR Del19/C797S (CellTiter-Glo)
# Type: cell-based
# Conditions: Mus musculus, BaF3, 72 hours of compound treatment
# Protocol: The following experiments were performed to evaluate the inhibitory activity of the compounds according to the present disclosure on Ba/F3 proliferation expressing EGFR C797S, L861Q, G719A, S768I, L718Q, and/or G724S mutations.
# For Ba/F3 cells, RPMI-1640 containing 10% FBS and 5 ng/ml IL-3 (R&D Systems) was used. Transduced Ba/F3 cells were cultured after adding 1 μg/ml puromycin (Invitrogen) to the same medium.
# At 24 hours before treatment with the compounds, 3000 to 5000 cells were aliquoted into each well of a white clear bottom 96 well plate (Corning). The compounds were diluted in dimethyl sulfoxide (3 times dilution, 12 concentrations in total), and injected in an amount of 1 μl so that the final concentration was 0.2 nM to 5 uM. For measurement of living cells, after 72 hours of compound treatment, the cells were stored at room temperature for 10 min using CellTiter-Glo luminescentcell-viability reagent (Promega), and then luminescence intensity was measured using a reader (SynergyNeo, Biotek). Each test was repeated three times. Result values were calculated as the cell growth rate (%) compared to the control. The graphs were created using GraphPad Prism version 8.3.0 program and the GI50 values were calculated.
row,Compound,GI50
1,"COc1cc(N2CCC(N3CCN(C)[C@H](C)C3)CC2)ccc1Nc1cc(N2OCC[C@@H]2c2cccc(F)c2F)ncn1 [Example 213, 6-((R)-3-(2,3-difluorophenyl)isoxazolidin-2-yl)-N-(4-(4-((R)-3,4-dimethylpiperazin-1-yl)piperidin-1-yl)-2-methoxyphenyl)pyrimidin-4-amine]",< 0.05 µM
2,"COc1cc(N2CCC(N3CCN(C)CC3)CC2)c(C(C)C)cc1Nc1cc(N2OCC[C@@H]2c2cccc(F)c2F)ncn1 [Example 142, (R)-6-(3-(2,3-difluorophenyl)isoxazolidin-2-yl)-N-(5-isopropyl-2-methoxy-4-(4-(4-methylpiperazin-1-yl)piperidin-1-yl)phenyl)pyrimidin-4-amine]",< 0.05 µM
3,"CN1CCC(n2cc(-c3ccc(Nc4cc(N5OCC[C@@H]5c5cc(F)cc(F)c5)ncn4)c4c3CCO4)cn2)CC1 [Example 160, (R)-6-(3-(3,5-difluorophenyl)isoxazolidin-2-yl)-N-(4-(1-(1-methylpiperidin-4-yl)-1H-pyrazol-4-yl)-2,3-dihydrobenzofuran-7-yl)pyrimidin-4-amine]",0.05 to 0.5 µM
4,"COc1nc(N2CCC(N3CCN(C)CC3)CC2)c(-c2cnn(C)c2)cc1Nc1cc(N2OCC[C@@H]2c2ccccc2)ncn1 [Example 147, (R)—N-(2-methoxy-5-(1-methyl-1H-pyrazol-4-yl)-6-(4-(4-methylpiperazin-1-yl)piperidin-1-yl)pyridin-3-yl)-6-(3-phenylisoxazolidin-2-yl)pyrimidin-4-amine]",< 0.05 µM
5,"COc1cc(N2CCC(N3CCN(C)CC3)CC2)c(C)cc1Nc1cc(N2OCC[C@@H]2c2ccccc2)ncn1 [Example 114, (R)—N-(2-methoxy-5-methyl-4-(4-(4-methylpiperazin-1-yl)piperidin-1-yl)phenyl)-6-(3-phenylisoxazolidin-2-yl)pyrimidin-4-amine]",< 0.05 µM
6,"COc1cc(N2CCC(N3CCN(CC4CC4)CC3)CC2)ccc1Nc1cc(N2OCC[C@@H]2c2cccc(F)c2F)ncn1 [Example 210, (R)—N-(4-(4-(4-(cyclopropylmethyl)piperazin-1-yl)piperidin-1-yl)-2-methoxyphenyl)-6-(3-(2,3-difluorophenyl)isoxazolidin-2-yl)pyrimidin-4-amine]",< 0.05 µM
7,"COc1cc(N2CCC(N3CCN(C)CC3)CC2)ccc1Nc1cc(N2OCC[C@@H]2c2ccc(F)c(F)c2)ncn1 [Example 90, (R)-6-(3-(3,4-difluorophenyl)isoxazolidin-2-yl)-N-(2-methoxy-4-(4-(4-methylpiperazin-1-yl)piperidin-1-yl)phenyl)pyrimidin-4-amine]",< 0.05 µM
8,"COc1cc(N2CCC(N3CCN(C)CC3)CC2)ccc1Nc1cc(N2OCC[C@@H]2c2cncc(F)c2)ncn1 [Example 169, (R)-6-(3-(5-fluoropyridin-3-yl)isoxazolidin-2-yl)-N-(2-methoxy-4-(4-(4-methylpiperazin-1-yl)piperidin-1-yl)phenyl)pyrimidin-4-amine]",0.05 to 0.5 µM
9,"COc1cc(N2CCC(N3CCCC3)CC2)ccc1Nc1cc(N2OCC[C@@H]2c2ccccc2)ncn1 [Example 62, (R)—N-(2-methoxy-4-(4-(pyrrolidin-1-yl)piperidin-1-yl)phenyl)-6-(3-phenylisoxazolidin-2-yl)pyrimidin-4-amine]",< 0.05 µM
10,"COc1cc(N2CCC(N3CCN(C4COC4)CC3)CC2)ccc1Nc1cc(N2OCC[C@@H]2c2cccc(F)c2F)ncn1 [Example 209, (R)-6-(3-(2,3-difluorophenyl)isoxazolidin-2-yl)-N-(2-methoxy-4-(4-(4-(oxetan-3-yl)piperazin-1-yl)piperidin-1-yl)phenyl)pyrimidin-4-amine]",< 0.05 µM
11,"COc1cc(C2CCN(C)CC2)ccc1Nc1cc(N2OCC[C@@H]2c2cccc(F)c2F)ncn1 [Example 141, (R)-6-(3-(2,3-difluorophenyl)isoxazolidin-2-yl)-N-(2-methoxy-4-(1-methylpiperidin-4-yl)phenyl)pyrimidin-4-amine]",< 0.05 µM
12,"CN(C)C1CCN(c2ccc(Nc3cc(N4OCC[C@@H]4c4ccccc4)ncn3)cc2)CC1 [Example 127, (R)—N-(4-(4-(dimethylamino)piperidin-1-yl)phenyl)-6-(3-phenylisoxazolidin-2-yl)pyrimidin-4-amine]",< 0.05 µM
13,"CN1CCN(C(=O)c2ccc(Nc3cc(N4OCC[C@@H]4c4ccccc4)ncn3)cc2)CC1 [Example 72, (R)-(4-methylpiperazin-1-yl) (4-((6-(3-phenylisoxazolidin-2-yl)pyrimidin-4-yl)amino)phenyl)methanone]",0.05 to 0.5 µM
14,"Fc1cc(F)cc([C@H]2CCON2c2cc(Nc3cccc4c3OCC4)ncn2)c1 [Example 159, (R)-6-(3-(3,5-difluorophenyl)isoxazolidin-2-yl)-N-(2,3-dihydrobenzofuran-7-yl)pyrimidin-4-amine]",0.05 to 0.5 µM
15,"COc1cc(N2CCC(N3CCN(C)CC3)CC2)ccc1Nc1cc(N2OCC[C@@H]2c2cccc(F)c2F)ncn1 [Example 32, (R)-6-(3-(2,3-difluorophenyl)isoxazolidin-2-yl)-N-(2-methoxy-4-(4-(4-methylpiperazin-1-yl)piperidin-1-yl)phenyl)pyrimidin-4-amine]",< 0.05 µM
16,"C=CCN1CCN(C2CCN(c3ccc(Nc4cc(N5OCC[C@@H]5c5cccc(F)c5F)ncn4)c(OC)c3)CC2)CC1 [Example 206, (R)—N-(4-(4-(4-allylpiperazin-1-yl)piperidin-1-yl)-2-methoxyphenyl)-6-(3-(2,3-difluorophenyl)isoxazolidin-2-yl)pyrimidin-4-amine]",< 0.05 µM
17,"O=C1CCCN1c1ccc(Nc2cc(N3OCC[C@@H]3c3ccccc3)ncn2)cc1 [Example 75, (R)-1-(4-((6-(3-phenylisoxazolidin-2-yl)pyrimidin-4-yl)amino)phenyl)pyrrolidin-2-one]",< 0.05 µM

# Continued, values first:
row,GI50,Compound
1,0.05 to 0.5 µM,"COc1cc(N2CCC(N3CCN(C)CC3)CC2)ccc1Nc1cc(N2OCC[C@@H]2c2cc(F)cc(C#N)c2)ncn1 [Example 170, (R)-3-fluoro-5-(2-(6-((2-methoxy-4-(4-(4-methylpiperazin-1-yl)piperidin-1-yl)phenyl)amino)pyrimidin-4-yl)isoxazolidin-3-yl)benzonitrile]"
2,< 0.05 µM,"COc1cc(N2CCC(N(C)C)CC2)ccc1Nc1cc(N2OCC[C@@H]2c2cc(F)cc(F)c2)ncn1 [Example 22, (R)-6-(3-(3,5-difluorophenyl)isoxazolidin-2-yl)-N-(4-(4-(dimethylamino)piperidin-1-yl)-2-methoxyphenyl)pyrimidin-4-amine]"
3,0.05 to 0.5 µM,"COc1cc(N2CCC(N3CCN(C)CC3)CC2)ccc1Nc1cc(N2OCC[C@@H]2c2cccc(C(F)(F)F)c2)ncn1 [Example 27, (R)—N-(2-methoxy-4-(4-(4-methylpiperazin-1-yl)piperidin-1-yl)phenyl)-6-(3-(3-(trifluoromethyl)phenyl)isoxazolidin-2-yl)pyrimidin-4-amine]"
4,< 0.05 µM,"COc1cc(N2CCC(N3CCN(C)C[C@H]3C)CC2)ccc1Nc1cc(N2OCC[C@@H]2c2cccc(F)c2F)ncn1 [Example 217, 6-((R)-3-(2,3-difluorophenyl)isoxazolidin-2-yl)-N-(4-(4-((R)-2,4-dimethylpiperazin-1-yl)piperidin-1-yl)-2-methoxyphenyl)pyrimidin-4-amine]"
5,< 0.05 µM,"COc1cc(N2CCC(N3C[C@H]4C[C@@H]3CO4)CC2)ccc1Nc1cc(N2OCC[C@@H]2c2ccccc2)ncn1 [Example 97, N-(4-(4-((1R,4R)-2-oxa-5-azabicyclo[2.2.1]heptan-5-yl)piperidin-1-yl)-2-methoxyphenyl)-6-((R)-3-phenylisoxazolidin-2-yl)pyrimidin-4-amine]"
6,< 0.05 µM,"COc1cc(Nc2cc(N3OCC[C@@H]3c3cc(F)ccc3F)ncn2)ccc1N1CCC(N2CCN(C)CC2)CC1 [Example 106, (R)-6-(3-(2,5-difluorophenyl)isoxazolidin-2-yl)-N-(3-methoxy-4-(4-(4-methylpiperazin-1-yl)piperidin-1-yl)phenyl)pyrimidin-4-amine]"
7,0.05 to 0.5 µM,"Cn1nccc1-c1ccc(Nc2cc(N3OCC[C@@H]3c3ccccc3)ncn2)c2c1OCCO2 [Example 80, (R)—N-(8-(1-methyl-1H-pyrazol-5-yl)-2,3-dihydrobenzo[b][1,4]dioxin-5-yl)-6-(3-phenylisoxazolidin-2-yl)pyrimidin-4-amine]"
8,< 0.05 µM,"CN1CCN(C2CCN(c3c(F)cc(Nc4cc(N5OCC[C@@H]5c5ccccc5)ncn4)cc3F)CC2)CC1 [Example 123, (R)—N-(3,5-difluoro-4-(4-(4-methylpiperazin-1-yl)piperidin-1-yl)phenyl)-6-(3-phenylisoxazolidin-2-yl)pyrimidin-4-amine]"
9,0.05 to 0.5 µM,"Cn1cc(Nc2cc(N3OCC[C@@H]3c3ccccc3)ncn2)cn1 [Example 133, (R)—N-(1-methyl-1H-pyrazol-4-yl)-6-(3-phenylisoxazolidin-2-yl)pyrimidin-4-amine]"
10,0.05 to 0.5 µM,"CN1CCN(c2ccc(Nc3cc(N4Oc5ccccc5C4c4ccccc4)ncn3)cc2)CC1 (stereo not shown) [Example 229, N-(4-(4-methylpiperazin-1-yl)phenyl)-6-(3-phenylbenzo[d]isoxazol-2(3H)-yl)pyrimidin-4-amine]"
11,< 0.05 µM,"COc1cc(N2C[C@H]3C[C@@H]2CO3)ccc1Nc1cc(N2OCC[C@@H]2c2ccccc2)ncn1 [Example 59, N-(4-((1R,4R)-2-oxa-5-azabicyclo[2.2.1]heptan-5-yl)-2-methoxyphenyl)-6-((R)-3-phenylisoxazolidin-2-yl)pyrimidin-4-amine]"
